According to the NIST ThermoML archive (doi:10.1021/je500093z):

How the values were obtained:
[1] = refractive index (Na D-line) (dimensionless); details: 101.33 kPa, Liquid, Standard Abbe refractometry
[2] = for surface tension liquid-gas: Ring tensiometer; for viscosity / speed of sound / mass density: 101.33 kPa, Liquid; for speed of sound: Pulse-echo method; for mass density: Vibrating tube method

CCCCn1cc[n+](C)c1.F[P-](F)(F)(F)(F)F [1-butyl-3-methylimidazolium hexafluorophosphate]
Details	mass density, [2] [kg/m3]	refractive index, [1]	speed of sound, [2] [m/s]	surface tension liquid-gas, [2] [mN/m]	viscosity, [2] [mPa·s]
298.15 K	1367	1.4101	1443.6	43	273.94
303.15 K	1363	1.4085	1431.6	42.6	203.2
308.15 K	1359	1.4081	1419.8	42.2	153.99
313.15 K	1355	1.407	1408.3	41.9	118.96
318.15 K	1351	1.4068	1396.9	41.7	93.44
323.15 K	1347	1.4058	1385.8	41.2	74.6
328.15 K	1343	1.4053	1374.7	40.8	60.43
333.15 K	1339	1.4042	1363.8	40.5	49.62

CCCCn1cc[n+](C)c1.O=S(=O)([O-])O [1-butyl-3-methylimidazolium hydrogen sulfate]
Details	mass density, [2] [kg/m3]	refractive index, [1]	speed of sound, [2] [m/s]	surface tension liquid-gas, [2] [mN/m]	viscosity, [2] [mPa·s]
298.15 K	1224	1.5043	1689.8	43.6	439.36
303.15 K	1220	1.5	1676.7	43.2	321.95
308.15 K	1217	1.4965	1664.3	42.8	240.81
313.15 K	1214	1.4914	1652.1	42.4	183.54
318.15 K	1211	1.4857	1640.2	42	142.55
323.15 K	1208	1.4813	1628.5	41.7	112.37
328.15 K	1204	1.4762	1615.5	41.3	89.95
333.15 K	1201	1.4721	1601.5	40.9	72.88

CCn1cc[n+](C)c1.COS(=O)(=O)[O-] [1-ethyl-3-methylimidazolium methylsulfate]
Details	mass density, [2] [kg/m3]	refractive index, [1]	speed of sound, [2] [m/s]	surface tension liquid-gas, [2] [mN/m]	viscosity, [2] [mPa·s]
298.15 K	1292	1.4741	1762.1	39.8	94.91
303.15 K	1289	1.4739	1750.4	39.5	76.8
308.15 K	1285	1.4735	1738.7	39.2	61.66
313.15 K	1282	1.4721	1727	38.9	51.28
318.15 K	1279	1.4716	1715.5	38.8	42.42
323.15 K	1275	1.4706	1704	38.4	35.33
328.15 K	1272	1.4702	1692.6	38.2	30.11
333.15 K	1268	1.4698	1681.3	38	26.25

CCCCCCn1cc[n+](C)c1.F[P-](F)(F)(F)(F)F [1-hexyl-3-methylimidazolium hexafluorophosphate]
Details	mass density, [2] [kg/m3]	refractive index, [1]	speed of sound, [2] [m/s]	surface tension liquid-gas, [2] [mN/m]	viscosity, [2] [mPa·s]
298.15 K	1292	1.4179	1424.4	37.2	349.17
303.15 K	1288	1.4161	1411.3	36.9	253.96
308.15 K	1284	1.4148	1399.6	36.6	188.77
313.15 K	1280	1.4134	1386.7	36.3	142.99
318.15 K	1276	1.4115	1374.9	36	110.24
323.15 K	1272	1.4104	1363.4	35.7	86.42
328.15 K	1268	1.4088	1352.1	35.4	68.87
333.15 K	1264	1.4075	1340.8	35.1	55.62

CC(C)C[P+](C)(CC(C)C)CC(C)C.Cc1ccc(S(=O)(=O)[O-])cc1 [triisobutylmethylphosphonium p-toluenesulfonate]
Details	mass density, [2] [kg/m3]	refractive index, [1]	speed of sound, [2] [m/s]	surface tension liquid-gas, [2] [mN/m]	viscosity, [2] [mPa·s]
298.15 K	1068	1.5185	1628.8	33.9	2132.4
303.15 K	1065	1.5181	1610.6	33.8	1363.2
308.15 K	1062	1.5174	1585.6	33.6	896.08
313.15 K	1059	1.516	1567.6	33.4	606.71
318.15 K	1056	1.5151	1551.1	33.2	422.49
323.15 K	1053	1.5144	1535.7	32.9	302.17
328.15 K	1050	1.5123	1521.5	32.8	221.27
333.15 K	1047	1.5119	1508.3	32.6	165.53

CCCCCCCC[n+]1ccn(C)c1.F[P-](F)(F)(F)(F)F [1-octyl-3-methylimidazolium hexafluorophosphate]
Details	mass density, [2] [kg/m3]	refractive index, [1]	speed of sound, [2] [m/s]	surface tension liquid-gas, [2] [mN/m]	viscosity, [2] [mPa·s]
298.15 K	1234	1.4217	1404.7	36.1	603.44
303.15 K	1231	1.4211	1390.3	35.9	430.88
308.15 K	1226	1.4206	1376.6	35.6	314.44
313.15 K	1223	1.4201	1363.6	35.3	234.24
318.15 K	1219	1.4195	1351	35.1	177.79
323.15 K	1215	1.4186	1338.9	34.9	137.24
328.15 K	1211	1.4177	1327	34.6	107.58
333.15 K	1208	1.4167	1315.5	34.3	85.58

CCCCCCCC[n+]1ccn(C)c1.[Cl-] [1-methyl-3-octylimidazolium chloride]
Details	mass density, [2] [kg/m3]	refractive index, [1]	speed of sound, [2] [m/s]	surface tension liquid-gas, [2] [mN/m]	viscosity, [2] [mPa·s]
298.15 K	1010	1.5088	1687.2	32.5	13267
303.15 K	1007	1.5085	1667.7	32.2	7770.4
308.15 K	1004	1.5061	1646.1	31.9	4755.2
313.15 K	1001	1.5058	1619.6	31.6	3006.7
318.15 K	998	1.5054	1597.1	31.3	1967.6
323.15 K	995	1.5048	1577.4	31	1323.4
328.15 K	992	1.5037	1559.6	30.7	914.13
333.15 K	989	1.5029	1543	30.4	646.96

COS(=O)(=O)[O-].Cn1cc[n+](C)c1 [1,3-dimethylimidazolium methylsulfate]
Details	mass density, [2] [kg/m3]	refractive index, [1]	speed of sound, [2] [m/s]	surface tension liquid-gas, [2] [mN/m]	viscosity, [2] [mPa·s]
298.15 K	1329	1.4817	1811.5	57.6	71.7
303.15 K	1323	1.4811	1799.4	57.3	57.6
308.15 K	1319	1.4804	1787.3	56.8	46.93
313.15 K	1316	1.4797	1775.4	56.4	38.81
318.15 K	1312	1.4792	1763.6	56	32.52
323.15 K	1308	1.4785	1751.9	55.5	27.59
328.15 K	1305	1.4779	1740.3	55.1	23.67
333.15 K	1302	1.4771	1728.8	54.8	20.5
